Data on four molecules can be found in paper PMC10361207, “Cannabinoid and Opioid Receptor Affinity and Modulation of Cancer-Related Signaling Pathways of Machaeriols and Machaeridiols from Machaerium Pers” (Molecules, 2023).

For data set [1], the system named is NF-κB. Further details: method as in PMID 36235141. Particulars: T98G glioblastoma multiforme cells; inducer PMA; cited from earlier work.
In data set [2] the test system is Smad2/3. Further details: method as in PMID 36235141. As to conditions: T98G glioblastoma multiforme cells; inducer TGF-beta; cited from earlier work.
The test system of data set [3] is Notch. Set-up: method as in PMID 36235141. As to conditions: T98G glioblastoma multiforme cells; inducer PMA; cited from earlier work.
Data set [4] deals with Stat3. Further details: method as in PMID 36235141. Particulars: T98G glioblastoma multiforme cells; inducer IL6; cited from earlier work.
Data set [5] relates to ETS. Further details: method as in PMID 36235141. As to conditions: T98G glioblastoma multiforme cells; inducer PMA; cited from earlier work.
For data set [6], the system named is Wnt. Set-up: method as in PMID 36235141. Particulars: T98G glioblastoma multiforme cells; inducer m-wnt3a; cited from earlier work.
In data set [7] the test system is AP-1. Set-up: method as in PMID 36235141. Particulars: T98G glioblastoma multiforme cells; inducer PMA; cited from earlier work.
Data set [8] relates to Hedgehog. Set-up: method as in PMID 36235141. Particulars: T98G glioblastoma multiforme cells; inducer PMA; cited from earlier work.
For data set [9], the system named is Myc. Further details: method as in PMID 36235141. Particulars: T98G glioblastoma multiforme cells; inducer PMA; cited from earlier work.
Data set [10] deals with E2F. Set-up: method as in PMID 36235141. Particulars: T98G glioblastoma multiforme cells; inducer PMA; cited from earlier work.
The subject of data set [11] is AP-1. Description: Luciferase reporter assay, AP-1, HeLa. It is filed as cell-based, human. The protocol:
(§1) Hela cells (or T98G cells) from ATCC were plated in white opaque 384-well plates at a density of 4300 cells/well in 30 µL of growth medium (DMEM with 10% FBS and 1% Pen/Strep). The next day, the medium was aspirated and replaced with DMEM containing 1% FBS. The cells were transfected with respective plasmids using X-tremeGENE HP DNA transfection reagent (Roche). After 24 h of transfection, the test agents were added to the transfected cells, followed 30 min later by an inducing agent: interleukin 6 (IL-6) for Stat3, TGF-β for Smad, m-wnt3a for Wnt and PMA for AP-1, NF-κB, E2F, Myc, ETS, Notch and Hedgehog. No inducer was added for FoXO and pTK. After 4 h or 6 h of induction, the cells were lysed via the addition of the One-Glo luciferase assay system (Promega; Madison, WI). The light output was detected in a GloMax®-Multi+ Detection System with Instinct® Software (Promega E 8051). This luciferase assay determines if the test agent is able to inhibit the activation of cancer-related signaling pathways. In the case of FoxO, the enhanced luciferase activity via the test agent was assessed.
On the technique in general: Reporter assays use an easily measured gene product as a stand-in for the process of interest.

The subject of data set [12] is Hedgehog. Kind of data set: Luciferase reporter assay, Hedgehog, HeLa. It is filed as cell-based, human. Particulars: Homo sapiens; HeLa cells; inducer PMA; dash: not inhibited by more than 40% at 50 µmol/L. The protocol:
as §1

The subject of data set [13] is Wnt. Kind of data set: Luciferase reporter assay, Wnt, HeLa. The format is cell-based. Particulars: Homo sapiens; HeLa cells; inducer m-wnt3a; dash: not inhibited by more than 40% at 50 µmol/L. The protocol:
as §1

For data set [14], the system named is panel of transcription factors (cancer-related signaling pathways). Description: Luciferase reporter panel, summary over pathways, HeLa. It is filed as cell-based. Particulars: Homo sapiens; HeLa cells; read-out: IC50, span over signaling pathways. The protocol:
as §1

Data set [15] deals with E2F. Kind of data set: Luciferase reporter assay, E2F, HeLa. It is filed as cell-based, human. The protocol: as §1
The test system of data set [16] is Notch. Description: Luciferase reporter assay, Notch, HeLa. The format is cell-based. As to conditions: Homo sapiens; HeLa cells; inducer PMA; dash: not inhibited by more than 40% at 50 µmol/L. The protocol: as §1
Data set [17] concerns Myc. Kind of data set: Luciferase reporter assay, Myc, HeLa. Particulars: Homo sapiens; HeLa cells; inducer PMA; dash: not inhibited by more than 40% at 50 µmol/L. It is filed as cell-based. The protocol:
as §1

The subject of data set [18] is ETS. Description: Luciferase reporter assay, ETS, HeLa. It is filed as cell-based, human. As to conditions: Homo sapiens; HeLa cells; inducer PMA; dash: not inhibited by more than 40% at 50 µmol/L. The protocol:
as §1

For data set [19], the system named is NF-κB. Kind of data set: Luciferase reporter assay, NF-κB, HeLa. The format is cell-based. As to conditions: Homo sapiens; HeLa cells; inducer PMA; dash: not inhibited by more than 40% at 50 µmol/L. The protocol:
as §1

A further data set relates to FoxO. Kind of data set: Luciferase reporter assay, FoxO, HeLa. Particulars: Homo sapiens; HeLa cells; no inducer; dash: no activity detected; read-out: IC50, FoxO (None). It is filed as cell-based. The protocol:
as §1

Data set [20] relates to Stat3. Description: Luciferase reporter assay, Stat3, HeLa. The format is cell-based, human. Particulars: Homo sapiens; HeLa cells; inducer IL6; dash: not inhibited by more than 40% at 50 µmol/L. The protocol:
as §1

Data set [21] relates to Smad2/3. Description: Luciferase reporter assay, Smad2/3, HeLa. It is filed as cell-based, human. Particulars: Homo sapiens; HeLa cells; inducer TGF-beta; dash: not inhibited by more than 40% at 50 µmol/L. The protocol: as §1
A short description of data set [22]: Cytotoxicity, Neutral Red, HeLa. The format is cell-based. Particulars: human, HeLa cervical cancer cells, Na = not active up to 50 µg/mL. The protocol: (§2) In vitro cytotoxic activity was determined against five human cancer cell lines—malignant melanoma (SK-MEL), epidermal carcinoma oral (KB), ductal carcinoma breast (BT-549), ovary carcinoma (SKOV-3) and cervical (HeLa) cancer cells—and two non-cancerous kidney cell lines (LLC-PK1 and Vero). All cell lines were obtained from the American Type Culture Collection (ATCC, Rockville, MD, USA). Each assay was performed in 96-well tissue culture-treated microplates. The cells were seeded at a density of 25,000 cells/well and incubated for 24 h. Samples at different concentrations were added, and the cells were incubated again for 48 h. At the end of the incubation, the cell viability was determined using Neutral Red dye according to a modification of the procedure used by Borenfreund et al.. IC50 values were determined from dose–response curves of the percent growth inhibition against test concentrations. Doxorubicin was used as a positive control, while DMSO was used as the negative (vehicle) control.

Data set [23] in a line: Cytotoxicity, Neutral Red, SK-MEL. The format is cell-based. As to conditions: human, SK-MEL malignant melanoma cells, Na = not active up to 50 µg/mL. The protocol:
as §2

The nature of data set [24]: Cytotoxicity, Neutral Red, BT-549. It is filed as cell-based. As to conditions: human, BT-549 breast ductal carcinoma cells, Na = not active up to 50 µg/mL. The protocol:
as §2

Data set [25] in a line: Cytotoxicity, Neutral Red, LLC-PK1. It is filed as cell-based. As to conditions: pig, LLC-PK1 kidney epithelial cells, Na = not active up to 50 µg/mL. The protocol: as §2
The nature of data set [26]: Cytotoxicity, Neutral Red, Vero. The format is cell-based. Particulars: monkey, Vero kidney fibroblasts, Na = not active up to 50 µg/mL. The protocol:
as §2

Data set [27] in a line: Cytotoxicity, Neutral Red, SK-OV-3. The format is cell-based. Particulars: human, SK-OV-3 ovary carcinoma cells, Na = not active up to 50 µg/mL. The protocol: as §2
A short description of data set [28]: Cytotoxicity, Neutral Red, KB. As to conditions: human, KB epidermal carcinoma (oral) cells, Na = not active up to 50 µg/mL. It is filed as cell-based. The protocol: as §2
Where [29] appears, read: HeLa cells, inducer PMA, dash: not inhibited by more than 40% at 50 µmol/L.

The term pIC50 denotes the IC50 on a negative log10 scale, so that one unit is a factor of ten. One may read the IC50 as the concentration that inhibits the measured activity by half. A low value points to higher potency.

The structures appear in SMILES notation. pIC50: −log10 of the molar value. Values after ≈ are worked out from the molar mass of the structure shown. Like-named read-outs stand apart in the source and are kept apart here.

For the molecule `C=C(C)[C@H]1CCC(C)=C[C@@H]1c1c(O)cc(O)cc1/C=C/c1ccccc1` [compound 12], the pIC50 with NF-κB [1] was 5.11; in the data set on Smad2/3 [2] it was 5.46; in the data set with Notch [3] it was > 5.30; in the data set on Stat3 [4], 5.31; in the data set on ETS [5] it was 5.14; in the data set on Wnt [6], 4.92. Besides, the pIC50 was 4.99 in the data set on AP-1 [7], 5.15 in the data set with Hedgehog [8], 5.24 in the data set with Myc [9] and 5.35 with E2F [10].

Regarding `CC(C)=CCC/C(C)=C/Cc1c(O)cc(O)cc1/C=C/c1ccccc1` [compound 13], the pIC50 was 5.32 in the data set on NF-κB [1]; 5.66 in the data set on Smad2/3 [2]; 5.68 in the data set with Notch [3]; 5.37 with Stat3 [4]; 5.33 in the data set with ETS [5]; 5.04 in the data set on Wnt [6]. In addition, the pIC50 with AP-1 [7] is 5.36; in the data set with Hedgehog [8], 5.08; in the data set on Myc [9] it was 5.72; with E2F [10], 5.36.

For the molecule `C=C(C)[C@@H]1CCC(C)=C[C@H]1c1c(O)cc(CCCCC)cc1O` [compound 9, cannabidiol, reference compound], the “IC50, Ap-1 (PMA)” value in the data set with AP-1 [11] (setting [29]) was “inactive”. The negative logarithm of the IC50 (pIC50) in the data set on AP-1 [11] (Homo sapiens, read-out: IC50, Ap-1 (PMA)) is < 4.30; in the data set on Hedgehog [12] it was 5.21; in the data set on Wnt [13] it was 5.24; in data set [14], 5.21 to 5.52; in the data set on E2F [15] (Homo sapiens, HeLa, read-out: IC50, E2F (PMA)) it was < 4.30; with Notch [16], 5.32. The pIC50 in the data set on Myc [17] is 5.42; in the data set on ETS [18], 5.26; with NF-κB [19], 5.52; with FoxO it was < 4.30; in the data set with Stat3 [20] it was 5.23; in the data set on Smad2/3 [21] it was 5.39. The “IC50, E2F (PMA)” value with E2F [15] (setting [29]) was “inactive”.

For the molecule `COc1cccc2c1C(=O)c1c(O)c3c(c(O)c1C2=O)C[C@@](O)(C(=O)CO)C[C@@H]3O[C@H]1C[C@H](N)[C@H](O)[C@H](C)O1` [Doxorubicin, reference compound], the IC50 at 48 h was 4.3 mg/L (≈ 7.91 µM) in [22]; 2.2 mg/L (≈ 4.05 µM) in data set [23]; 2.4 mg/L (≈ 4.42 µM) in data set [24]; 1.1 mg/L (≈ 2.02 µM) in data set [25]; > 5 mg/L in [26]; 2 mg/L (≈ 3.68 µM) in [27]. This molecule also displayed an IC50 at 48 h in [28] of 2.4 mg/L (≈ 4.42 µM).
